# Experiments:
# [1] = test system: human breast cancer cells (MDA-MB-231); test: SRB proliferation assay, human breast cancer cells (MDA-MB-231); format: cell-based; conditions: MDA-MB-231, 72 hr, read-out: IC50 against MDA-MB-231 cells
# From the text: (§1) The pharmacodynamic action of the compound of the present invention in terms of inhibiting the proliferation of cancer cells may be assayed by conventional methods, one preferable evaluation method of which is Sulforhodamine B (SRB) protein staining method, which calculates the inhibition ratio of a drug against the proliferation of cancer cells through measuring the change in optical absorption value generated after the drug has influenced the cancer cells. Inhibition ratio (%)=(OD control−OD inhibitor−OD blank)/(OD control−OD blank)×100%
# OD control: the OD value of the well of normally grown cells without the action of a drug.
# OD inhibitor: the OD value of the well of cells with the action of added compounds to be screened.
# OD blank: the OD value of the well of parallel control without seeding cells.
# (§2) The median inhibitory concentration (IC50) value is obtained by the software GraphPad Prism 5 through calculation.
# (§3) The human breast cancer cells in the logarithmic phase were inoculated to 96-well culture plates (180 μl/well) at a density of about 5500/well. The well for each concentration was triplicated. Solvent control wells of corresponding concentrations and apoptosis-free wells were also established. […]
# [2] = test system: human colon cancer cells (HT-29); test: SRB proliferation assay, human colon cancer cells (HT-29); format: cell-based; conditions: HT-29, 72 hr, read-out: IC50 against HT-29 cells
# From the text: as §1, §2
# as §3, with “established. After adherent growth for 24 hr, the compounds of the present invention were added at 20 μl/well, and the cells were cultured for 72 hr under the conditions of 10% Hyclone fetal calf serum, 37° C., 5% CO2.” for “established.”
# According to the experimental method of Test Example 1, the IC50 value of the compound of the present invention against HT-29 cells was calculated as: […]
# [3] = test system: human lung cancer cells (H1975); test: SRB proliferation assay, human lung cancer cells (H1975); format: cell-based; conditions: NCI-H1975, H1975, 72 hr, read-out: IC50 against H1975 cells
# From the text: as §1, §2
# as §3, with “established. After adherent growth for 24 hr, the compounds of the present invention were added at 20 μl/well, and the cells were cultured for 72 hr under the conditions of 10% Hyclone fetal calf serum, 37° C., 5% CO2.” for “established.”
# According to the experimental method of Test Example 1, the IC50 value of the compound of the present invention against H1975 cells was calculated as: […]
# c-Met receptor = c-Met receptor (Homo sapiens (Human), UniProt P08581); test: Western blot test of c-Met phosphorylation in EGF-stimulated H1975 cells; format: cell-based; conditions: EGF induction, 1 μM and 5 μM, 6 hr
# Protocol: The human lung cancer cells (H1975) in the logarithmic phase were inoculated to 6-well culture plates at a density of about 4×10^5/well. The cells were adherently grown for 24 hr. Four wells were selected, wherein two wells were added with the compound of Example 2 respectively (1 μM/well and 5 μM/well). The other two wells were not added with drugs. The cells were cultured for 6 hr under the conditions of 10% Hyclone fetal calf serum, 37° C., 5% CO2. EGF was added to the above two wells and one of the drug-free well to stimulate for 15 min. After the cells were washed with cold PBS, sample loading buffer (2×SDS Lysis Buffer+1M DTT+H2O) was added to lyse the cells. The lysate of the cells was heated for 10 min at 100° C., centrifuged for 5 min at 12000 g, and the supernatant was took out. The supernatant was subjected to SDS-PAGE electrophoretic analysis. At 25 mA constant current, after wetly transferred for 2 h, the proteins were transferred to PVDF (polyvinylidine difluoride) membrance. The PVDF membrance was took out, incubated with the corresponding primary antibody (pMet) at 4° C. overnight. […] After washing with TBST for 3 times, images were developed with ECL luminescence kit, and were mounted. […]
# [4] = target: receptor tyrosine kinase c-Met (c-Met kinase domain recombination protein) (Homo sapiens (Human), UniProt P08581); test: Enzyme linked immunosorbent assay (ELISA) of c-Met kinase activity; format: biochemical; conditions: for IC50: c-Met enzyme, ELISA, read-out: IC50 (nM) mean ± SD
# Protocol: The evaluation of the inhibition of the compound of the present invention on the activity of c-Met enzyme in molecular level may be assayed by conventional methods, one preferable evaluation method of which is enzyme-linked immunosorbent assay (ELISA). By measuring the inhibition ratio of the compounds against the activity of receptor tyrosine kinase protein c-Met enzyme, the median inhibitory concentration IC50 is calculated based on the inhibition ratios for various concentrations using the four-parameter method. The inhibition ratio for a sample (%)=(1−(OD value of a compound−OD value of the control well without enzyme)/(OD value of the negative control well−OD value of the control well without enzyme))×100%
# (1) The enzyme reaction substrate Poly(Glu, Tyr) 4:1 was diluted to 20 μg/mL, 1254/well coated enzyme label plate with potassium ion-free PBS (10 mM sodium phosphate buffer, 150 mM NaCl, pH7.2-7.4), which was placed at 37° C. to allow to react for 12-16 h. The liquid in the wells was discarded. The plate was washed with 200 μL/well of T-PBS (potassium ion-free PBS containing 0.1% Tween-20) for three times (each for 5 min). The enzyme label plate was placed into a drying oven at 37° C. to dry for 1-2 h.
# (2) To each well was added 50 µL of ATP solution diluted with reaction buffer (50 mM HEPES pH 7.4, 50 mM MgCl2, 0.5 mM MnCl2, 0.2 mM Na3VO4, 1 mM DTT), and to each well was added 1 μL of the compounds. When adding the test compounds, 6 concentration gradients were set for each compound (the starting concentrations and dilution times were determined according to the results of preliminary screening so as to ensure that the maximum inhibition ratio was about 80% and the minimum inhibition ratio was about 20%, and more than two concentration points were in the vicinity of 50% inhibition ratio), and then 504 of c-Met kinase domain recombination protein diluted with reaction buffer was added to initiate the reaction. Two ATP-free control wells were needed for each of the experiments. The reaction was placed on a shaking table at 37° C. (100 rpm) for 1 h. The liquid in the wells was discarded and the plate was washed with T-PBS for three times.
# (3) The antibody PY99 was added at 1004/well (the antibody was diluted with T-PBS containing BSA (5 mg/mL) in 1:500). The reaction was performed on a shaking table at 37° C. for 0.5 h. The liquid in the wells was discarded and the plate was washed with T-PBS for three times.
# (4) The horseradish peroxidase-labeled goat anti-mouse secondary antibody was added at 100 μL/well (the antibody was diluted with T-PBS containing BSA (5 mg/mL) in 1:2000), The reaction was performed on a shaking table at 37° C. for 0.5 h. The liquid in the wells was discarded and the plate was washed with T-PBS for three times.
# (5) 2 mg/ml of OPD colour developing solution (diluted with 0.1M citric acid-sodium citrate buffer (pH=5.4) containing 0.03% H2O2) was added at 1004/well, and the reaction was performed at 25° C. for 1-10 min under protection from light.
# (6) 2M H2SO4 was added at 50 μL/well to terminate the reaction, and the values were read by a microplate reader VERSAmax with adjustable wavelength, wherein the wavelength was 490 nm. Through calculation, the inhibitory IC50 values of the compounds of Example 2, 12 and 13 against the activity of receptor tyrosine kinase c-Met enzyme were obtained as: […]
# Chain of receptor tyrosine kinase c-Met (c-Met kinase domain recombination protein) (P08581 1078-1345): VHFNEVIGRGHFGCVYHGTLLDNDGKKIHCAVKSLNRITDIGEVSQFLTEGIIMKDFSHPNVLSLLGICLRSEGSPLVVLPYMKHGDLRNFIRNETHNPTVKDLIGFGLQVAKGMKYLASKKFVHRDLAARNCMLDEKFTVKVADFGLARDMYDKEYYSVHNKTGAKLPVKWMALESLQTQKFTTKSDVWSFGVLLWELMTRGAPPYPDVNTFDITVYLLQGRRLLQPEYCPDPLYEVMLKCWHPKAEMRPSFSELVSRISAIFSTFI
# Chain of c-Met receptor (P08581 25-1390): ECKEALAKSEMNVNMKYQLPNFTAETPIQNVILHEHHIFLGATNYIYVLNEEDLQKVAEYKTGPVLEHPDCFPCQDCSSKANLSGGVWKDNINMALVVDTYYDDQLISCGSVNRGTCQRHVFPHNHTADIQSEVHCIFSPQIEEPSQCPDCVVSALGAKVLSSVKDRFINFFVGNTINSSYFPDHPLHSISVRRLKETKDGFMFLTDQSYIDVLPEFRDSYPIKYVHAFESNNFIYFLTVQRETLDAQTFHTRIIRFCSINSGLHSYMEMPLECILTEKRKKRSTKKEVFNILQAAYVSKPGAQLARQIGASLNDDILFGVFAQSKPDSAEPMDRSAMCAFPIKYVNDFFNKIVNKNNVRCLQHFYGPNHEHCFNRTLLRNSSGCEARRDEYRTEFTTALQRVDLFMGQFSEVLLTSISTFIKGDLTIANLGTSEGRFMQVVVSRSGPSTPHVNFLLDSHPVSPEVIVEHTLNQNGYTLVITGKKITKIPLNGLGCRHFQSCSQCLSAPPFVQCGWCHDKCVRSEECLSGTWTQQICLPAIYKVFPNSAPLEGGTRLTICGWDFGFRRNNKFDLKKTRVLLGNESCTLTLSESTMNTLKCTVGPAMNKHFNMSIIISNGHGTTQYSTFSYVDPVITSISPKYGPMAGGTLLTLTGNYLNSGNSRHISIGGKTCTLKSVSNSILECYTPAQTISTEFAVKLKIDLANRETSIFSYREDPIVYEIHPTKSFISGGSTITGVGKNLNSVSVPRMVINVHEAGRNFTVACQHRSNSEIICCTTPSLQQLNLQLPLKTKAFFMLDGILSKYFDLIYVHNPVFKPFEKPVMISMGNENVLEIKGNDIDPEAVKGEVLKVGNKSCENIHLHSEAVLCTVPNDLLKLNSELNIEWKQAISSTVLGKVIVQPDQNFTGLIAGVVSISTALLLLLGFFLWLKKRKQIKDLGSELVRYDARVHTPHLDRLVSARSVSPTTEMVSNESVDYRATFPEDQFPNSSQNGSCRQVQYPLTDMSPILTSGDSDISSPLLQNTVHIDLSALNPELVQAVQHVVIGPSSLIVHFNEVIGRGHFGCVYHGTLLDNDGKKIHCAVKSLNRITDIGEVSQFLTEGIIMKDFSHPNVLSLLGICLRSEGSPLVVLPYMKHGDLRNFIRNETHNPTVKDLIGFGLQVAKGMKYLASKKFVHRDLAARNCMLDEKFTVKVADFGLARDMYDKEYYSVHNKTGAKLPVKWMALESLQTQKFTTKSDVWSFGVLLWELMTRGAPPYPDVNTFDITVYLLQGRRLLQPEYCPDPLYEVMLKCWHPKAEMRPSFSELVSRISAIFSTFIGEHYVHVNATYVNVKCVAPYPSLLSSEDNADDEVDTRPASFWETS
IC50 [1],IC50 [2],IC50 [3],inhibition of the phosphorylation of c-Met receptor (c-Met receptor),Average inhibition ratio (%) ([4]; 0.8 nM),Average inhibition ratio (%) ([4]; 2 nM),Average inhibition ratio (%) ([4]; 7 nM),Average inhibition ratio (%) ([4]; 22 nM),Average inhibition ratio (%) ([4]; 66 nM),Average inhibition ratio (%) ([4]; 200 nM),IC50 [4],SMILES
9.53 µM,5.26 µM,11.7 µM,effectively inhibit,8.4%,26.9%,51.0%,69.9%,76.8%,78.0%,6.7 ± 2.3 nM,"CC(Oc1cc(-c2cn(C3CCNCC3)nn2)cnc1N)c1c(Cl)ccc(F)c1Cl (stereo not shown) [Example 2, 3-(1-(2,6-dichloro-3-fluorophenyl)ethoxy)-5-(1-(piperidin-4-yl)-1H-1,2,3-triazol-4-yl)-2-aminopyridine]"
,,,,7.9%,18.2%,39.8%,61.7%,76.3%,77.5%,11.7 ± 2.3 nM,C[C@H](Oc1cc(-c2cn(C3CCNCC3)nn2)cnc1N)c1c(Cl)ccc(F)c1Cl [Example 12]
,,,,31.1%,62.2%,67.7%,79.7%,88.0%,88.2%,1.7 ± 0.4 nM,"C[C@@H](Oc1cc(-c2cn(C3CCNCC3)nn2)cnc1N)c1c(Cl)ccc(F)c1Cl [Example 13, (R)-3-(1-(2,6-dichloro-3-fluorophenyl)ethoxy)-5-(1-(piperidin-4-yl)-1H-1,2,3-triazol-4-yl)-2-aminopyridine]"

# — US8952002B2, “Aminoheteroaryl compounds and preparation method and use thereof” (Shanghai Allist Pharmaceuticals, Inc., priority 2012, dated 2015)
